We go through three compounds from ChEMBL document CHEMBL3508693 (2016).

Series [1] is described as follows: % SPP100 (0-168h) recovered in urine following single oral dose of [14C] aliskiren hemifumarate at 3 mg.Kg-1 level in marmoset. The series is classed as ADME, organism-based, Callithrix jacchus. The conditions noted are these: in vivo.
Series [2] in a line: % of radioactivity recovered as aliskiren in plasma following oral administration of [14C] aliskiren hemifumarate at 100 mg.Kg-1 level in rat. The conditions noted are these: in vivo. In kind it is ADME, organism-based, Albino HAN:WIST.
Another series addresses CYP2C19 (Homo sapiens, UniProt P33261). Briefly: Inhibitory activity of 20 uM SPP100 on 1214 Pmoles of cDNA-derived CYP2C19 enzyme in microsome prepared from human lymphoblastoid cell line. In kind it is ADME, microsomes. The conditions noted are these: probe (S)-mephenytoin (50 uM). Details: conc 20 uM, interact cpd conc 50 uM.
The nature of series [3]: % of radioactivity recovered as aliskiren in faeces following intravenous administration of [14C] aliskiren hemifumarate at 10 mg.Kg-1 level in rat. In kind it is ADME, organism-based, Albino HAN:WIST, Feces. The settings on record: in vivo.
Series [4] is described as follows: % SPP100 (0-72h) recovered in faeces following single intravenous dose of [14C] aliskiren hemifumarate at 1 mg.Kg-1 level in marmoset. In kind it is ADME, organism-based, Callithrix jacchus, Feces. The conditions noted are these: in vivo.
A short description of series [5]: Elimination (0-96h) of radioactivity via biliary route following intravenous administration of [14C] aliskiren hemifumarate at 10 mg.Kg-1 level in rat. In kind it is ADME, organism-based, Albino HAN:WIST, Bile. The settings on record: in vivo.
Series [6] in a line: Mean excretion of radioactivity (0-24h) in urine and faeces following single intravenous dose of 10 mg.Kg-1 [14C] aliskiren hemifumarate in mouse. The series is classed as ADME, organism-based, TgRasH2, Urine/Feces. The conditions noted are these: in vivo.
The nature of series [7]: Effect of single oral dose of 300 mg [14C]SPP100 on ECG values studied in healthy men. The series is classed as toxicity, organism-based. The conditions noted are these: human, in vivo.
Series [8] in a line: Mean excretion of radioactivity (24-48h) in urine and faeces following single oral dose of 100 mg.Kg-1 [14C] aliskiren hemifumarate in rat. The conditions noted are these: in vivo. In kind it is ADME, organism-based, Albino HAN:WIST, Urine/Feces.
Series [9] is described as follows: Total excretion of radioactivity following oral administration of [14C] aliskiren hemifumarate at 3 mg.Kg-1 level in marmoset. The series is classed as ADME, organism-based, Callithrix jacchus, Urine/Feces. The conditions noted are these: in vivo.
A short description of series [10]: Concentration of radioactivity in the brown fat following repeated oral administration of [14C] aliskiren hemifumarate at 100 mg.Kg-1 level studied at 24h after 3rd dose in rat. In kind it is ADME, organism-based, Albino HAN:WIST, Brown adipose tissue. The conditions noted are these: in vivo.
Series [11] is described as follows: Concentration of radioactivity in the colon wall following repeated oral administration of [14C] aliskiren hemifumarate at 100 mg.Kg-1 level studied at 24h after 3rd dose in rat. The conditions noted are these: in vivo. The series is classed as ADME, organism-based, Albino HAN:WIST.
A short description of series [12]: Concentration of radioactivity in the liver following repeated oral administration of [14C] aliskiren hemifumarate at 100 mg.Kg-1 level studied at 24h after 7th dose in rat. In kind it is ADME, organism-based, Albino HAN:WIST. The settings on record: in vivo.
Series [13] can be described thus: Excretion of radioactivity (0-24h) in urine following single intravenous dose of 10 mg.Kg-1 [14C] aliskiren hemifumarate in rat. The settings on record: in vivo. The series is classed as ADME, organism-based, Albino HAN:WIST.
The target in the next series is Cytochrome P450 2E1 (Homo sapiens, UniProt P05181). Briefly: Activity of human recombinant CYP2E1 assessed as enzyme contribution (% total relative CL) towards [14C]SPP100 hemifumarate metabolism in human liver microsome. In kind it is ADME. The conditions noted are these: microsomes. In general terms: Liver microsomes are vesicles of endoplasmic reticulum, rich in cytochrome P450 enzymes.
Cytochrome P450 2E1, sequence (P05181 whole entry): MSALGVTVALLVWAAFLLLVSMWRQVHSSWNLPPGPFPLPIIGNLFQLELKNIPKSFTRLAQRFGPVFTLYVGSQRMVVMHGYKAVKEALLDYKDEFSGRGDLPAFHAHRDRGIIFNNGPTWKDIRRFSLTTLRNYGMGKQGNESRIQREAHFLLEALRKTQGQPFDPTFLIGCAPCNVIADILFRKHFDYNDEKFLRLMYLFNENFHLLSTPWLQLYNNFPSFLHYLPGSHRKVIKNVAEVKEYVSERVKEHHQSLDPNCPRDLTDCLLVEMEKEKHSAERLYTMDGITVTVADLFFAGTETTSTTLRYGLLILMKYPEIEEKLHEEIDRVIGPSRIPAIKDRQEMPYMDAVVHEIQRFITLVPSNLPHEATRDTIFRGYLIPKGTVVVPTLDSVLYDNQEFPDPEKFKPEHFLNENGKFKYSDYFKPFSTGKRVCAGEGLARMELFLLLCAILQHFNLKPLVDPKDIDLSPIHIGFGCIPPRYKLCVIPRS

The nature of series [14]: Apparent terminal half-life (0-168h) of total radioactivity following single oral administration of [14C] aliskiren hemifumarate at 3 mg.Kg-1 level in marmoset. The series is classed as ADME, organism-based, Callithrix jacchus, Plasma. The settings on record: in vivo.
Series [15] in a line: Excretion (168h) of radioactivity in urine following intravenous administration of [14C] aliskiren hemifumarate at 10 mg.Kg-1 level in rat. The series is classed as ADME, organism-based, Lister-Hooded. The settings on record: in vivo.
The nature of series [16]: Concentration of radioactivity in the liver following repeated oral administration of [14C] aliskiren hemifumarate at 100 mg.Kg-1 level studied at 24h after 10th dose in rat. The series is classed as ADME, organism-based, Albino HAN:WIST. The conditions noted are these: in vivo.
Series [17] is described as follows: Mean excretion of radioactivity (72-96h) in urine and faeces following single intravenous dose of 10 mg.Kg-1 [14C] aliskiren hemifumarate in rat. In kind it is ADME, organism-based, Albino HAN:WIST, Urine/Feces. The conditions noted are these: in vivo.
A short description of series [18]: Excretion (0-168h) of radioactivity in faeces following intravenous administration of [14C] aliskiren hemifumarate at 1 mg.Kg-1 level in marmoset. In kind it is ADME, organism-based, Callithrix jacchus, Feces. The settings on record: in vivo.
Series [19] is described as follows: Concentration of radioactivity in carcass following oral administration of [14C] aliskiren hemifumarate at 100 mg.Kg-1 level measured on day 7 in rat. The series is classed as ADME, organism-based, Lister-Hooded. The settings on record: in vivo.
Series [20] can be described thus: Mean excretion of radioactivity (0-96h) in urine and faeces following single intravenous dose of 10 mg.Kg-1 [14C] aliskiren hemifumarate in rat. The series is classed as ADME, organism-based, Albino HAN:WIST, Urine/Feces. The conditions noted are these: in vivo.
A short description of series [21]: Mean excretion of radioactivity (48-72h) in urine and faeces following single oral dose of 500 mg.Kg-1 [14C] aliskiren hemifumarate in mouse. The series is classed as ADME, organism-based, TgRasH2, Urine/Feces. The conditions noted are these: in vivo.
A short description of series [22]: Apparent Km value of metabolism of [14C] aliskiren hemifumarate studied in human liver microsome. The settings on record: microsomes. The series is classed as ADME.
Series [23] in a line: Tmax of radioactivity following repeated oral administration of [14C] aliskiren hemifumarate at 100 mg.Kg-1 level studied after 2h of dosing on day 1 in rat. In kind it is ADME, organism-based, Albino HAN:WIST. The conditions noted are these: in vivo.
A short description of series [24]: AUCspec of aliskiren hemifumarate following 2 week oral dosing of aliskiren hemifumarate at 10 mg.Kg-1 level studied on day 14 in female Callithrix jacchus. The series is classed as ADME, organism-based, Plasma. The settings on record: marmoset, in vivo, 336 h.
Series [25] can be described thus: Tmax of aliskiren hemifumarate following 2 week oral dosing of aliskiren hemifumarate at 10 mg.Kg-1 level studied on day 14 in female Callithrix jacchus. In kind it is ADME, organism-based. The conditions noted are these: marmoset, plasma.
Series [26] can be described thus: AUC(0-24h) of aliskiren hemifumarate following 2 week oral dosing of aliskiren hemifumarate at 10 mg.Kg-1 level studied on day 1 in female Callithrix jacchus. The series is classed as ADME, organism-based. The settings on record: marmoset, plasma.
Series [27] can be described thus: AUCspec of aliskiren hemifumarate following 2 week oral dosing of aliskiren hemifumarate at 50 mg.Kg-1 level studied on day 14 in female Callithrix jacchus. The series is classed as ADME, organism-based, Plasma. The conditions noted are these: marmoset, in vivo, 336 h.
Series [28] can be described thus: AUC(0-24h) of aliskiren hemifumarate following 2 week oral dosing of aliskiren hemifumarate at 10 mg.Kg-1 level studied on day 1 in male Callithrix jacchus. In kind it is ADME, organism-based. The conditions noted are these: marmoset, plasma.
Series [29] in a line: Tmax of aliskiren hemifumarate following single dosing of SPP100B oral solution at 40 mg level studied on day 1 in men. In kind it is ADME, organism-based. The settings on record: male, human, plasma.
Series [30] in a line: AUCss(tau)/dose of aliskiren hemifumarate following repeated oral administration of [14C] aliskiren hemifumarate at 100 mg.Kg-1 level studied in rat. The series is classed as ADME, organism-based, Albino HAN:WIST, Plasma. The settings on record: in vivo.
Series [31] is described as follows: Tmax of aliskiren hemifumarate following repeated oral administration of [14C] aliskiren hemifumarate at 100 mg.Kg-1 level studied after 2h of dosing on day 1 in rat. The settings on record: in vivo. In kind it is ADME, organism-based, Albino HAN:WIST.
A short description of series [32]: Cmin of aliskiren hemifumarate following repeated oral administration of [14C] aliskiren hemifumarate at 100 mg.Kg-1 level studied at steady state during a dosing interval in rat. The settings on record: in vivo. In kind it is ADME, organism-based, Albino HAN:WIST.
Series [33] is described as follows: Tmax of aliskiren hemifumarate following 4 week oral dietary dosing of aliskiren hemifumarate at 500 mg.Kg-1 level in male mouse. The series is classed as ADME, organism-based. The settings on record: CB6F1-TGrasH2, mouse, in vivo.
Series [34] can be described thus: Effect of 2 week oral dosing of aliskiren hemifumarate at 50 mg.Kg-1 level on blood urea nitrogen level in female Callithrix jacchus. The series is classed as toxicity, organism-based, Plasma. The settings on record: marmoset, 336 h.
Series [35] in a line: AUCspec of aliskiren hemifumarate following 2 week oral dosing of aliskiren hemifumarate at 100 mg.Kg-1 level studied on day 14 in male Callithrix jacchus. The series is classed as ADME, organism-based, Plasma. The settings on record: marmoset, in vivo, 336 h.
Series [36] can be described thus: Effect of 2 week oral dosing of aliskiren hemifumarate at 50 mg.Kg-1 level on plasma creatinine level in male Callithrix jacchus. In kind it is toxicity, organism-based. The settings on record: marmoset, 336 h.
Series [37] is described as follows: Cmax of aliskiren hemifumarate following 2 week oral dosing of aliskiren hemifumarate at 100 mg.Kg-1 level studied on day 14 in male Callithrix jacchus. In kind it is ADME, organism-based. The conditions noted are these: marmoset, plasma.
Series [38] in a line: Tmax of aliskiren hemifumarate following 4 week oral dietary dosing of aliskiren hemifumarate at 1500 mg.Kg-1 level in female mouse. In kind it is ADME, organism-based. The conditions noted are these: CB6F1-TGrasH2, mouse, in vivo.

Where only a bound is given, the exact number is not on record here.

CYP2C19, sequence (P33261 whole entry): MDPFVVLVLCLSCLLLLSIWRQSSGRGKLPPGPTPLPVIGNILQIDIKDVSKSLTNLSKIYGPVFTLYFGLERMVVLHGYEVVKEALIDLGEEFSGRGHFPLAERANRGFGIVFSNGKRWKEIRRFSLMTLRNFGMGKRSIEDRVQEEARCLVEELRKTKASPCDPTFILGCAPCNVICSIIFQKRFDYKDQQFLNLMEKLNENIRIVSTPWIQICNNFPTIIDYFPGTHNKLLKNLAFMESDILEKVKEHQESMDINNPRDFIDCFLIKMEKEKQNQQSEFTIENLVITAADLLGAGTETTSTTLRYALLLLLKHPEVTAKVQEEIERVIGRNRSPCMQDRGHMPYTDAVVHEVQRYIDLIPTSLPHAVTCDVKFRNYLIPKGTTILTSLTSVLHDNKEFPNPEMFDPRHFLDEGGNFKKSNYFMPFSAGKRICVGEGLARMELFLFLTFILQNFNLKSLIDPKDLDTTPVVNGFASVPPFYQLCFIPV

Consider `COCCCOc1cc(C[C@@H](C[C@H](N)[C@@H](O)C[C@H](C(=O)NCC(C)(C)C(N)=O)C(C)C)C(C)C)ccc1OC`, for which the Compound recovery in series [1] is recorded as 2.3%; in series [2], above 40%; in [3] it was above 40%; in series [4] it was 36%. Besides, the inhibition (as a rule, the change of the read-out against control, counted positive when it falls) at 20 µM at CYP2C19 is -1.9%.
Regarding `COCCCOc1cc(C[C@@H](C[C@H](N)[C@@H](O)C[C@H](C(=O)NCC([14CH3])([14CH3])C(N)=O)C(C)C)C(C)C)ccc1OC.O=C(O)/C=C/C(=O)O`, the Radiolabel recovery result in [5] was “OUTCOME = Observed/Elimination of radioactivity was mainly via biliary route”; in [6], 84.68%; in [8], 40.2%; in [9], 104%; in series [10], “OUTCOME = Detected”; in series [11], “OUTCOME = Observed, VALUE = Highest radioactivity concentration was observed”. The Radiolabel recovery result in series [12] is “OUTCOME = Detected”; in series [13], 35.6%; in series [15] it was 10.4%; in series [16], “OUTCOME = Detected”; in series [17] it was 2.24%; in series [18] it was 72%. Further, the Radiolabel recovery result is “OUTCOME = Observed, VALUE = residues of radioactivity remained in the carcass at 7 days after dosing” in series [19]; 94.8% in [20]; 9.33% in series [21]. Moreover, the ECG entry in series [7] is “OUTCOME = ECG findings were all considered as normal”. Moreover, the Activity on Cytochrome P450 2E1 is listed as 0.06%. Further, in series [14], the t1/2 is listed as 45.5 h. In series [22], the Km (usually the concentration of substrate that gives half-maximal velocity) is 43.8 µM. The “Tmax(1)” value in [23] is 2 h.
Turning to `COCCCOc1cc(C[C@@H](C[C@H](N)[C@@H](O)C[C@H](C(=O)NCC(C)(C)C(N)=O)C(C)C)C(C)C)ccc1OC.COCCCOc1cc(C[C@@H](C[C@H](N)[C@@H](O)C[C@H](C(=O)NCC(C)(C)C(N)=O)C(C)C)C(C)C)ccc1OC.O=C(O)/C=C/C(=O)O` [ALISKIREN FUMARATE], the values for the AUC normalised in series [24], in series [27] and in [35] were 2.9 ((ug.h.ml-1)/(mg/kg), 2.18 ((ug.h.ml-1)/(mg/kg) and 1.09 ((ug.h.ml-1)/(mg/kg), respectively. In addition, the time to peak (Tmax) (commonly the time at which the peak concentration occurs) was 1 h in [25], 1.6 h in series [29], 3 h in [33] and 0.5 h in [38]. In addition, the AUC(0-t) (in general, exposure summed from dosing to a finite time, without extrapolation to infinity) at 24 h worked out at 21300 ng·h/mL in series [26] and 22000 ng·h/mL in series [28]. In addition, the “AUCss(tau) normalised” value in series [30] is 10 (nmol.h.L-1)/(mg/kg). The “Tmax(1)” value in series [31] is 2 h. Further, in [32], the “Cmin(ss)” value was determined as 4.54 nM. For the same compound, the BUN_CHANGE_BY in [34] came out at 274%. In addition, the CREAT_CHANGE_BY in series [36] was 130%. Also, the Cmax – broadly, the peak of the concentration-time curve – in [37] was 9670 ng/mL.
